Results: patent US5057146A (priority 1986, dated 1991)
Where two headings read alike, the source gives them in different places.

Tests used:
[1] = test system: Puccinia recondita; assay: foliar fungal disease control, Puccinia recondita on wheat; format: in vivo
Protocol: (§1) The compounds were tested against a variety of foliar fungal diseases of plants. The technique employed was as follows.
(§2) The plants were grown in John Innes Potting Compost (No 1 or 2) in 4 cm diameter minipots. The test compounds were formulated either by bead milling with aqueous Dispersol T or as a solution in acetone or acetone/ethanol which was diluted to the required concentration immediately before use. […] The sprays were applied to maximum retention and the root drenches to a final concentration equivalent to approximately 40 ppm a.i./dry soil. Tween 20, to give a final concentration of 0.05%, was added when the sprays were applied to cereals.
(§3) For most of the tests the compound was applied to the soil (roots) and to the foliage (by spraying) one or two days before the plant was inoculated with the disease. An exception was the test on Erysiphe graminis in which the plants were inoculated 24 hours before treatment. Foliar pathogens were applied by spray as spore suspensions onto the leaves of test plants. After inoculation, the plants were put into an appropriate environment to allow infection to proceed and then incubated until the disease was ready for assessment. The period between inoculation and assessment varied from four to fourteen days according to the disease and environment.
(§4) The disease control was recorded by the following grading: […]

[2] = test system: Erysiphe graminis hordei; assay: foliar fungal disease control, Erysiphe graminis hordei on barley; format: in vivo; conditions: inoculated 24 hours before treatment
Protocol: as §1, §2, §3, §4

[3] = test system: Venturia inaequalis; assay: foliar fungal disease control, Venturia inaequalis on apple; format: in vivo
Protocol: as §1, §2, §3, §4

[4] = test system: Pyricularia oryzae; format: in vivo, Pyricularia oryzae (rice)
[5] = test system: Cercospora arachidicola; assay: foliar fungal disease control, Cercospora arachidicola on peanut; format: in vivo
Protocol: as §1, §2, §3, §4

[6] = test system: Plasmopara viticola; assay: foliar fungal disease control, Plasmopara viticola on vine; format: in vivo
Protocol: as §1, §2, §3, §4

[7] = test system: Phytophthora infestans; format: in vivo, Phytophthora infestans (tomato)
[8] = 100 ppm foliar spray plus root drench approx. 40 ppm a.i./dry soil

SMILES	disease control grading, Puccinia recondita (wheat) ([1]; 25 ppm foliar spray only)	disease control grading, Erysiphe graminis hordei (barley) ([2]; 25 ppm foliar spray only)	disease control grading, Venturia inaequalis (apple) ([3]; 25 ppm foliar spray only)	disease control grading, Pyricularia oryzae (rice) ([4]; 25 ppm foliar spray only)	disease control grading, Cercospora arachidicola (peanut) ([5]; 25 ppm foliar spray only)	disease control grading, Plasmopara viticola (vine) ([6]; 25 ppm foliar spray only)	disease control grading, Phytophthora infestans (tomato) ([7]; 25 ppm foliar spray only)	disease control grading, Puccinia recondita (wheat) [1, 8]	disease control grading, Erysiphe graminis hordei (barley) [2, 8]	disease control grading, Venturia inaequalis (apple) [3, 8]	disease control grading, Pyricularia oryzae (rice) [4, 8]	disease control grading, Cercospora arachidicola (peanut) [5, 8]	disease control grading, Plasmopara viticola (vine) [6, 8]	disease control grading, Phytophthora infestans (tomato) [7, 8]
CO/C=C(/C(=O)OC)c1ccccc1[S+]([O-])c1ccc(Br)cn1 (centres unmarked) [Compound 1 (Table III), (E)--methyl 2-(2'-(5"-bromopyridin-2"-ylsulphinyl)phenyl]-3-methoxyacrylate]	0 (60-100% of disease on untreated plants)	0 (60-100% of disease on untreated plants)	3 (trace-5% of disease on untreated plants)	0 (60-100% of disease on untreated plants)	0 (60-100% of disease on untreated plants)	0 (60-100% of disease on untreated plants)	0 (60-100% of disease on untreated plants)	–	–	–	–	–	–	–
CO/C=C(/C(=O)OC)c1ccccc1S(=O)(=O)c1ccc(Br)cn1 [Compound 2 (Table III), (E)-meth-yl 2-(2'-(5"-bromopyridin-2"-ylsulphonyl)phenyl]-3-methoxyacrylate]	–	–	–	–	–	–	–	3 (trace-5% of disease on untreated plants)	0 (60-100% of disease on untreated plants)	3 (trace-5% of disease on untreated plants)	0 (60-100% of disease on untreated plants)	0 (60-100% of disease on untreated plants)	0 (60-100% of disease on untreated plants)	0 (60-100% of disease on untreated plants)
CO/C=C(/C(=O)OC)c1ccccc1Oc1cc(C)ccn1 [Compound 10 (Table I)]	–	–	–	–	–	–	–	4	4	4	4	3 (trace-5% of disease on untreated plants)	4	4
CO/C=C(/C(=O)OC)c1ccccc1Oc1cc(C(F)(F)F)ccn1 [Compound 11 (Table I)]	3 (trace-5% of disease on untreated plants)	4	4	2 (6-25% of disease on untreated plants)	0 (60-100% of disease on untreated plants)	4	4	–	–	–	–	–	–	–
CO/C=C(/C(=O)OC)c1ccccc1Sc1ccc(Cl)cn1 [Compound 14 (Table II), (E-)-methyl 2-[2'-(5"-chloropyridin-2"-ylthio)phenyl]-3-methoxyacrylate]	–	–	–	–	–	–	–	4	4	4	3 (trace-5% of disease on untreated plants)	4	4	0 (60-100% of disease on untreated plants)
CO/C=C(/C(=O)OC)c1ccccc1Oc1ccc([N+](=O)[O-])cn1 [Compound 133 (Table I), (E)-methyl 2-[2'-(5"-nitropyridin-2"-yloxy)phenyl]-3-methoxyacrylate]	–	–	–	–	–	–	–	4	4	4	4	–	4	0 (60-100% of disease on untreated plants)
CO/C=C(/C(=O)OC)c1ccccc1Oc1cc(F)nc(Cl)c1 [Compound 167 (Table I)]	–	–	–	–	–	–	–	4	4	4	3 (trace-5% of disease on untreated plants)	0 (60-100% of disease on untreated plants)	4	–
